From PubChem BioAssay AID248 (DTP/NCI, 2004)
Values joined by “and” are separate entries in the source; they are usually repeats but may differ in a detail not shown here. Identical values can stand only once. Toxic doses and inconclusive results are not listed. No stated cut-off is given here; in the data, active means T/C of 150% or more; inactive means T/C below 125%.

System: L1210 leukemia ip in BDF1 mice, survival T/C
Assay: NCI In Vivo Anticancer Drug Screen. Data for tumor model L1210 Leukemia (intraperitoneal) in B6D2F1 (BDF1) mice
Settings: endpoint: mean survival time, higher = longer survival
In short: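 In this screen, tumor-bearing mice given compound are compared to those given vehicle, and their survival values are reported as a treated-to-control quotient.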

[1] = dose: 100.0 mg/kg/injection, schedule: Q04DX003 (ip), vehicle: Klucel (hydroxypropylcellulose) (HPC)
[2] = dose: 200.0 mg/kg/injection, schedule: Q04DX003 (ip), vehicle: Klucel (hydroxypropylcellulose) (HPC)
[3] = dose: 400.0 mg/kg/injection, schedule: Q04DX003 (ip), vehicle: Klucel (hydroxypropylcellulose) (HPC)
[4] = dose: 100.0 mg/kg/injection, schedule: Q01DX001 (ip), vehicle: saline with Tween-80
[5] = dose: 200.0 mg/kg/injection, schedule: Q01DX001 (ip), vehicle: saline with Tween-80
[6] = dose: 400.0 mg/kg/injection, schedule: Q01DX001 (ip), vehicle: saline with Tween-80
[7] = dose: 100.0 mg/kg/injection, schedule: Q04DX003 (ip), vehicle: saline with Tween-80
[8] = dose: 200.0 mg/kg/injection, schedule: Q04DX003 (ip), vehicle: saline with Tween-80
[9] = dose: 100.0 mg/kg/injection, schedule: Q01DX009 (ip), vehicle: gum acacia
[10] = dose: 200.0 mg/kg/injection, schedule: Q01DX009 (ip), vehicle: gum acacia
[11] = dose: 400.0 mg/kg/injection, schedule: Q01DX009 (ip), vehicle: gum acacia
[12] = dose: 100.0 mg/kg/injection, schedule: Q01DX009 (ip), vehicle: Klucel (hydroxypropylcellulose) (HPC)
[13] = dose: 200.0 mg/kg/injection, schedule: Q01DX009 (ip), vehicle: Klucel (hydroxypropylcellulose) (HPC)
[14] = dose: 400.0 mg/kg/injection, schedule: Q01DX009 (ip), vehicle: Klucel (hydroxypropylcellulose) (HPC)
[15] = dose: 100.0 mg/kg/injection, schedule: Q01DX001 (ip), vehicle: Klucel (hydroxypropylcellulose) (HPC)
[16] = dose: 200.0 mg/kg/injection, schedule: Q01DX001 (ip), vehicle: Klucel (hydroxypropylcellulose) (HPC)
[17] = dose: 100.0 mg/kg/injection, schedule: Q01DX001 (ip), vehicle: saline
[18] = dose: 200.0 mg/kg/injection, schedule: Q01DX001 (ip), vehicle: saline
[19] = dose: 400.0 mg/kg/injection, schedule: Q01DX001 (ip), vehicle: saline
[20] = dose: 100.0 mg/kg/injection, schedule: Q04DX003 (ip), vehicle: saline
[21] = dose: 200.0 mg/kg/injection, schedule: Q04DX003 (ip), vehicle: saline
[22] = dose: 100.0 mg/kg/injection, schedule: Q01DX001 (ip), vehicle: carboxymethylcellulose (CMC)
[23] = dose: 200.0 mg/kg/injection, schedule: Q01DX001 (ip), vehicle: carboxymethylcellulose (CMC)

Measured: T/C

CN(C)S(=O)(=O)c1ccc(Nc2ccc(O)c3c2C(=O)c2c([N+](=O)[O-])ccc(O)c2C3=O)cc1
inactive: dose: 75.0 mg/kg/injection, schedule: Q01DX001 (ip), vehicle: steriod suspending solution 98 % of control | dose: 150.0 mg/kg/injection, schedule: Q01DX001 (ip), vehicle: steriod suspending solution 98 % of control | dose: 300.0 mg/kg/injection, schedule: Q01DX001 (ip), vehicle: steriod suspending solution 100 % of control

C[N+](C)(C)c1ccc(N=Nc2ccccn2)cc1
inactive: dose: 50.0 mg/kg/injection, schedule: Q01DX001 (ip), vehicle: saline 113 % of control

Oc1ccc2ccccc2c1/C=N/N=C/c1c(O)ccc2ccccc12
inactive: [1] 96 % of control | [2] 91 % of control | dose: 300.0 mg/kg/injection, schedule: Q01DX009 (ip), vehicle: Klucel (hydroxypropylcellulose) (HPC) 98 % of control | [3] 88 % of control

COC(=O)c1ccc(C(C)=O)cc1
inactive: [4] 103 % of control | [5] 97 % of control | [6] 100 % of control

CC(C)N(CCNc1nc(C(Cl)(Cl)Cl)nc2cc(Cl)ccc12)C(C)C
inactive: [7] 93 % of control | [8] 94 % of control

CC1CCCN(C(=O)Nc2cccc(C(F)(F)F)c2)C1 (stereo not drawn)
inactive: [9] 100 % of control | [10] 110 % of control | [11] 99 % of control

Cc1cccc(C2CCCC2c2ccccc2)c1 (stereo not drawn)
inactive: [12] 96 % of control | [1] 110 % of control | [13] 89 % of control | [2] 94 % of control | [14] 101 % of control | [3] 108 % of control

O=C(NC(=O)c1ccc([N+](=O)[O-])cc1)OCCCl
inactive: [15] 92 % of control | [16] 97 % of control | dose: 400.0 mg/kg/injection, schedule: Q01DX001 (ip), vehicle: Klucel (hydroxypropylcellulose) (HPC) 105 % of control

CC(=O)C(=O)O
inactive: [17] 110 % of control | [18] 95 % of control | [19] 87 % of control

COC(=O)c1ccc(N(C)Cc2cnc3nc(N)nc(SCc4ccccc4)c3n2)cc1
inactive: [4] 97 % of control | [5] 94 % of control | [6] 101 % of control

CC(C)(O)C(Cl)(Cl)Cl
inactive: [1] 101 % of control | [20] 98 % of control | [2] 95 % of control | [21] 100 % of control

CC(C)(C)C(=O)CC(=O)C(C)(C)C.CC(C)(C)C(=O)CC(=O)C(C)(C)C.CC(C)(C)C(=O)CC(=O)C(C)(C)C.CC(C)(C)C(=O)CC(=O)C(C)(C)C.[Er]
inactive: [7] 108 % of control | [8] 92 % of control | dose: 400.0 mg/kg/injection, schedule: Q04DX003 (ip), vehicle: saline with Tween-80 88 % of control

O=C(Nc1cccc(Cl)c1)Nc1cccc(Br)c1
inactive: dose: 100.0 mg/kg/injection, schedule: Q04DX002 (ip), vehicle: Klucel (hydroxypropylcellulose) (HPC) 96 % of control | dose: 200.0 mg/kg/injection, schedule: Q04DX002 (ip), vehicle: Klucel (hydroxypropylcellulose) (HPC) 88 % of control | dose: 400.0 mg/kg/injection, schedule: Q04DX002 (ip), vehicle: Klucel (hydroxypropylcellulose) (HPC) 118 % of control

O=[N+]([O-])c1ccc(F)c(Cl)c1
inactive: dose: 100.0 mg/kg/injection, schedule: Q01DX009 (ip), vehicle: other 98 % of control | dose: 100.0 mg/kg/injection, schedule: Q04DX003 (ip), vehicle: other 105 % of control | dose: 200.0 mg/kg/injection, schedule: Q04DX003 (ip), vehicle: other 100 % of control | dose: 400.0 mg/kg/injection, schedule: Q04DX003 (ip), vehicle: other 90 % of control

CN(N=O)C(=O)NC1C(O)C(CO)OC1n1ccc(=O)[nH]c1=O (stereo not drawn)
inactive: [20] 98 % of control | [21] 96 % of control | dose: 400.0 mg/kg/injection, schedule: Q04DX003 (ip), vehicle: saline 102 % of control

O=C(CC(=O)c1ccccc1)Nc1ccccc1
inactive: dose: 100.0 mg/kg/injection, schedule: Q01DX001 (ip), vehicle: gum acacia 103 % of control and 104 % of control | [9] 95 % of control and 104 % of control | dose: 100.0 mg/kg/injection, schedule: Q04DX002 (ip), vehicle: gum acacia 100 % of control and 88 % of control | dose: 100.0 mg/kg/injection, schedule: Q04DX003 (ip), vehicle: gum acacia 96 % of control and 91 % of control | dose: 200.0 mg/kg/injection, schedule: Q01DX001 (ip), vehicle: gum acacia 96 % of control and 97 % of control | [10] 92 % of control | dose: 200.0 mg/kg/injection, schedule: Q04DX002 (ip), vehicle: gum acacia 98 % of control and 90 % of control | dose: 200.0 mg/kg/injection, schedule: Q04DX003 (ip), vehicle: gum acacia 96 % of control and 88 % of control | dose: 400.0 mg/kg/injection, schedule: Q01DX001 (ip), vehicle: gum acacia 92 % of control and 93 % of control | [11] 102 % of control | dose: 400.0 mg/kg/injection, schedule: Q04DX002 (ip), vehicle: gum acacia 94 % of control and 91 % of control | dose: 400.0 mg/kg/injection, schedule: Q04DX003 (ip), vehicle: gum acacia 93 % of control and 94 % of control

CC(=O)c1cc(O)ccc1O
inactive: dose: 25.0 mg/kg/injection, schedule: Q01DX009 (ip), vehicle: saline with Tween-80 96 % of control | dose: 50.0 mg/kg/injection, schedule: Q01DX009 (ip), vehicle: saline with Tween-80 98 % of control | dose: 100.0 mg/kg/injection, schedule: Q01DX009 (ip), vehicle: saline with Tween-80 98 % of control and 86 % of control | dose: 400.0 mg/kg/injection, schedule: Q01DX009 (ip), vehicle: saline with Tween-80 91 % of control

COc1ccc2c(c1C)CCC1(C(=O)O)CC(C)C(O)CC21 (stereo not drawn)
inactive: dose: 100.0 mg/kg/injection, schedule: Q01DX009 (ip), vehicle: saline sonified 98 % of control | dose: 200.0 mg/kg/injection, schedule: Q01DX009 (ip), vehicle: saline sonified 96 % of control | dose: 400.0 mg/kg/injection, schedule: Q01DX009 (ip), vehicle: saline sonified 96 % of control

O=C(Nc1ccc(S(=O)(=O)O)cc1)c1ccc(C(=O)Nc2ccc(S(=O)(=O)O)cc2)cc1
inactive: dose: 30.0 mg/kg/injection, schedule: Q01DX Z (ip), vehicle: saline 91 % of control | dose: 60.0 mg/kg/injection, schedule: Q01DX Z (ip), vehicle: saline 97 % of control | dose: 120.0 mg/kg/injection, schedule: Q01DX Z (ip), vehicle: saline 93 % of control

COc1ccc2c(c1)CCC1C2=CCC2C(=O)CCC(=O)C21 (stereo not drawn)
inactive: dose: 50.0 mg/kg/injection, schedule: Q01DX001 (ip), vehicle: Klucel (hydroxypropylcellulose) (HPC) 101 % of control | [15] 101 % of control | [16] 93 % of control

O=P(OCCCCl)(OCCCCl)C(Cl)(Cl)Cl
inactive: [17] 102 % of control | [18] 101 % of control | [19] 101 % of control

CCOC(=O)c1ccc(N(CCC(O)CN=[N+]=[N-])S(=O)(=O)c2ccc(C)cc2)cc1 (stereo not drawn)
inactive: dose: 50.0 mg/kg/injection, schedule: Q01DX001 (ip), vehicle: carboxymethylcellulose (CMC) 96 % of control | [22] 100 % of control | [23] 96 % of control | dose: 400.0 mg/kg/injection, schedule: Q01DX001 (ip), vehicle: carboxymethylcellulose (CMC) 100 % of control

O=C(O)c1cc2c(cc1[N+](=O)[O-])OCO2
inactive: dose: 100.0 mg/kg/injection, schedule: Q04DX002 (ip), vehicle: saline with Tween-80 104 % of control | dose: 200.0 mg/kg/injection, schedule: Q04DX002 (ip), vehicle: saline with Tween-80 92 % of control | dose: 400.0 mg/kg/injection, schedule: Q04DX002 (ip), vehicle: saline with Tween-80 90 % of control

CCCCCCC(/C=N/NC(=O)CCCCCCCCC(=O)N/N=C/C(=C/c1ccccc1)CCCCCC)=C\c1ccccc1
inactive: [12] 93 % of control | [13] 98 % of control | [14] 91 % of control

COc1ccc(/C=C(\CCCOC(C)=O)[N+](=O)[O-])cc1OC
inactive: [22] 104 % of control | [23] 101 % of control
